Experimental data: PMC10313368 (The Journal of Clinical Investigation, 2023)
Where “and” joins values, the source holds several entries; their conditions need not be identical. Equal entries are not always repeated. Where two headings read alike, the source gives them in different places.

How the values were obtained:
[1] = Mouse pharmacokinetics in retina after intraocular injection (LC-MS/MS); format: in vivo; conditions: for AUC % Extrapolated / AUClast / Cmax / half-life / Tmax: retina; for half-life / Tmax: C57BL/6, mouse, topical or ocular; for half-life: 280 ng
Experimental: intraocular injection. Mice (at least 3 mice per time point) were euthanized at 1, 3, 7, or 14 days after injection. For the 280-ng dose, a 10-day time point was added. […]
retina by LC-MS/MS as previously described (5) with the following modifications. Retina tissue samples were homogenized in 200 μL of 1× PBS (pH 7.4) before extraction. The standard curve and quality control samples were prepared in 1× PBS as a surrogate matrix. Retina tissue samples were then quantitated in µM as: nominal concentration (µM) × initial dilution ([tissue weight (mg) + volume of solvent (μl)]/ tissue weight (mg)). For all samples <10 nM, the value was reported as below the limits of detection. If at least on samples was >10 nM and one was <10 nM, then one half that value (5 nM) was imputed to calculate the concentration for that specimen and utilized in the average and standard deviation calculations.
Pharmacokinetic parameters were calculated from mean concentration-time data using noncompartmental methods in Phoenix WinNonlin version 8.3 (Certara, Princeton, NJ, USA). The Cmax and time to Cmax (Tmax) were the observed values. The AUClast was calculated using the log-linear trapezoidal method to the last quantifiable time point. The λz was determined from at least 3 points on the slope of the terminal phase of the concentration-time profile using a 1/y2 weighting factor. The T1/2 was determined by dividing 0.693 by λz. T1/2 was not reported if the correlation coefficient (r2) for λz was less than 0.9.
Bioanalytical method for mouse pharmacokinetics. Retina tissue samples were homogenized in 200 μL of 1× PBS (pH 7.4) before extraction. The standard curve and quality control samples were prepared in 1× PBS as a surrogate matrix for all matrices. Tissue homogenate or PBS (25 μL) was […]
respectively. Dwell time was 150 milliseconds. […]
constructed from the peak area ratio of the analyte to the peak area of its internal standard (EXP-3179) using the least-squares quadratic regression analysis with 1/x2 weight over the range of 10-2,110 nM with dilutions of up to 1:10 (v/v). […]

[2] = system: hiPSC-derived 3D retinal organoids; test: qPCR of VEGF and ANGPTL4 mRNA in D120 hiPSC-derived retinal organoids in 1% O2; format: cell-based, human; conditions: for Vegfa mRNA / Angptl4 mRNA: 12 hours, 20% O2 about 1, replicates; for Vegfa mRNA: Figure 9F; for Angptl4 mRNA: Figure 9G
Experimental: An hiPSC line derived from CD34^+ cord blood was used in this study (A18945, Thermo Fisher Scientific) ([70]). Undifferentiated hiPSCs and derived retinal organoids were routinely tested for mycoplasma contamination by PCR. Cell culture, retinal differentiation, and organoid formation were conducted as previously described ([71]). Retinal organoids at D120 were used for experiments. […]
(§1) Reverse transcription and quantitative real-time PCR. Total RNA was isolated from cultured cells or retinas with PureLinkTM RNA Mini Kit (Invitrogen #12183025), and cDNA was prepared with MuLV Reverse Transcriptase (Applied Biosystems). Quantitative real-time PCR was performed with Power SYBR Green PCR Master Mix (Applied Biosystems) and MyiQ Real-Time PCR Detection System (Bio-Rad). Normalization was done using cyclophilin A for mouse tissue and human cell lines. Primers are listed in Supplemental Table 2. […]

[3] = system: retinal ganglion cells (RGCs); test: Retinal histology (H&E), RBPMS staining and quantitation of RGCs, ONL/INL thickness after intraocular injection; format: in vivo, mouse
[4] = system: HIF-regulated angiogenic mediators; test: mRNA expression of HIF-regulated vasoactive mediators in OIR mouse retina (qPCR); format: in vivo
Experimental: as §1
Animal studies. Eight-week-old pathogen-free female C57BL/6 mice were obtained from The Jackson Laboratory (JAX). Timed pregnant C57BL/6 mice were obtained from Charles River Laboratories. Mice heterozygous for HIF-1α have been previously described (2). Mice heterozygous for HIF-2α (strain number: 003266; common name: EPAS1 KO) were purchased […]
OIR mouse model. OIR experiments were performed as previously described (1, 3). Briefly, C57BL/6 mice were placed in 75% O2 on P7. On P12, the mice were returned to room air and were […]
(or vehicle) by intravitreal injection. Mice with body weight less than 6 g at P17 were excluded […]
from analysis. Data were collected from both males and females and the results were combined since there was no apparent difference between sexes. Representative images for selected time points from a minimum of three independent experiments are shown. Data from 3-8 pups were obtained at each time point. […]
Intraperitoneal (IP) injections. […]
intraperitoneally using an insulin syringe in OIR pups. […]
the peritoneal cavity of neonatal C57BL/6 mice and STZ mice at indicated times, and the retinal vasculature and lysates for WB and qPCR were assessed at P17.
Intraocular injections. Intravitreal injections were performed with a PLI-100A Pico-liter Microinjector (Warner Instruments, Harvard Bioscience) using pulled-glass micropipettes. Each micropipette was calibrated to deliver a 1 μl volume on depression of a foot switch. The mice were anesthetized with a ketamine (100 mg/kg) and xylazine (5mg/kg) mixture, and under a dissecting microscope, the sharpened tip of the micropipette was passed through the sclera just posterior to the limbus into the vitreous cavity and the foot switch was depressed, which caused fluid to […]

[5] = OIR+32-134D i.p. 20mg/kg, Figure 10C, replicates, 20 mg/kg
[6] = OIR+32-134D i.p. 20mg/kg, Figure 10D, replicates, 20 mg/kg
[7] = S Figure 4B, OIR mice, 14ng I.V., replicates
[8] = S Figure 4B, OIR mice, 70ng I.V., replicates

Structure (SMILES): Brc1ccc2c(-c3csc(-c4c[nH]c5c(Br)cccc45)n3)c[nH]c2c1 [32-134D, 4-(6-bromo-1H-indol-3-yl)-2-(7-bromo-1H-indol-3-yl)thiazole]
- AUC % Extrapolated ([1]; 70 ng eyeball): 21.1%
- AUClast ([1]; 70 ng eyeball): 72.3 nmol·days/g
- Cmax ([1]; 70 ng eyeball): 19.1 nmol/g
- AUC % Extrapolated ([1]; 280 ng eyeball): 2.2%
- AUClast ([1]; 280 ng eyeball): 147 nmol·days/g
- Cmax ([1]; 280 ng eyeball): 18 nmol/g
- half-life ([1]; 280 ng eyeball, read-out: T1/2 (converted)): 42.2 h
- half-life ([1]; single 280 ng intraocular injection, read-out: t1/2 in retina (converted)): 43.2 h
- Tmax ([1]; 70 ng eyeball): 24 h
- Tmax ([1]; 280 ng eyeball): 24 h
- Cmax in neurosensory retina ([1]; single 70 ng intraocular injection): 19.1 nmol/g
- AUClast in retina ([1]; single 70 ng intraocular injection, over 14 days): 72.3 nmol·days/g
- Cmax in neurosensory retina ([1]; single 280 ng intraocular injection): 18 nmol/g
- AUClast in retina ([1]; single 280 ng intraocular injection, through 14 days): 147 nmol·days/g
- IC50 as used for time above IC50 ([1]; threshold in the pharmacokinetic calculation): 3.51 nmol/g
- expression of HIF-regulated vasoactive mediators (in words) ([2]; 1% O2 12 hours, 32-134D): effectively prevented
- Vegfa mRNA ([2]; 1% O2+32-134D 1μM): 2.046 and 2.085 and 1.848
- Angptl4 mRNA ([2]; 1% O2+32-134D 1μM): 5.344 and 5.73 and 5.861
- Vegfa mRNA ([2]; 1% O2+32-134D 10μM): 0.2069 and 0.1725 and 0.1726
- Angptl4 mRNA ([2]; 1% O2+32-134D 10μM): 0.1373 and 0.1287 and 0.1338
- retinal histology including GCL ([3]; 32-134D 210 or 350 ng intraocular, 35 days): normal histology
- number of RGCs on retinal flat mounts (in words) ([3]; 32-134D at the highest doses tested, 35 days): unaffected
- ONL or INL thickness versus vehicle (in words) ([3]; 32-134D single dose 350 ng, 5 weeks): failed to demonstrate any changes
- therapeutic window following intraocular administration ([3]; 32-134D, mice): wide therapeutic window
- mRNA expression of key HIF-regulated vasoactive mediators in OIR mice (in words) ([4]; 5 consecutive (P12–P16) i.p. injections 20 mg/kg 32-134D): marked reduction
- Vegfa mRNA ([4]; Figure 14B, OIR mice, 14ng I.V., individual replicates): 2.554 and 2.472 and 2.429
- Vegfa mRNA ([4]; Figure 14B, OIR mice, 70ng I.V., individual replicates): 1.453 and 1.941 and 2.696
- other key HIF-regulated angiogenic genes including Kdr, Angptl4, Epo, Serpine1 (in words) ([4]; OIR mice P17, single intraocular 32-134D (70 ng, Supplemental Figure 4) at P12): moderate reduction
- Angptl4 mRNA [4, 5]: 1.959 and 1.886 and 1.828
- Epo mRNA [4, 5]: 15.9268 and 13.6786 and 15.0565
- Pdgfb mRNA [4, 5]: 7.756 and 6.2199 and 6.871
- Vegfa mRNA [4, 5]: 4.717 and 4.578 and 4.299
- Angpt2 mRNA [4, 6]: 1.455 and 1.394 and 1.541
- Kdr mRNA [4, 6]: 1.28 and 1.296 and 1.315
- Ptprb mRNA [4, 6]: 1.109 and 1.093 and 1.12
- Serpine1 mRNA [4, 6]: 18.6807 and 17.1616 and 18.3924
- Angptl4 mRNA [4, 7]: 1.665 and 1.591 and 1.559
- Epo mRNA [4, 7]: 8.623 and 9.0589 and 6.546
- Kdr mRNA [4, 7]: 1.18 and 1.183 and 1.04
- Serpine1 mRNA [4, 7]: 4.654 and 4.995 and 4.51
- Angptl4 mRNA [4, 8]: 1.678 and 1.5898 and 1.693
- Epo mRNA [4, 8]: 5.752 and 6.783 and 6.508
- Kdr mRNA [4, 8]: 1.345 and 1.2643 and 1.301
- Serpine1 mRNA [4, 8]: 6.417 and 6.411 and 5.108
- Vegfa mRNA expression in OIR mice (in words) ([4]; single intraocular injection 32-134D 14 ng at P12): moderate reduction
